Experimental data from patent US20060019995A1, “2,3-dihydro-4(1H)-pyridone derivatives , method for production thereof and pharmaceutical composition comprising the same” (priority 2002, published 2006).

Key:
[1] = test system: social recognition (olfactory memory); experiment: Social recognition in the Wistar rat; assay type: in vivo; conditions: intraperitoneal route, 3 mg/kg, second encounter after 2 hours
Text: Initially described in 1982 by THOR and HOLLOWAY (J. Comp. Physiol., 1982, 96, 1000-1006), the social recognition test has subsequently been proposed by various authors (DANTZER et al., Psychopharmacology, 1987, 91, 363-368; PER10 et al., Psycho-pharmacology, 1989, 97, 262-268) for studying the mnemocognitive effects of new compounds. The test is based on the natural expression of the olfactory memory of the rat and its natural tendency to forget and allows evaluation of memorisation, by recognition of a young congeneric animal, by an adult rat. A young rat (21 days), taken at random, is placed for 5 minutes in the cage housing an adult rat. With the aid of a video device, the experimenter observes the social recognition behaviour of the adult rat and measures its overall duration. The young rat is then removed from the adult rat's cage and is placed in its own cage until the second introduction. The adult rat is then given the compound under test (intraperitoneal route) and, after 2 hours, is again brought into the presence (5 minutes) of the young rat. The social recognition behaviour is then observed again and its duration measured.

[2] = test system: PBQ-induced abdominal cramps; experiment: Abdominal contractions induced by phenyl-p-benzoquinone (PBQ) in the NMRI mouse; assay type: in vivo; conditions: IP, 20 mg/kg, PBQ at t=30 min, cramps counted t=35 to 45 min
Experimental: Intraperitoneal administration of an alcoholic solution of PBQ causes abdominal cramps in the mouse (SIEGMUND et al., Proc. Soc. Exp. Biol., 1957, 95, 729-731). The cramps are characterised by repeated contractions of the abdominal musculature, accompanied by extension of the hind limbs. Most analgesics antagonise these abdominal cramps (COLLIER et al., Brit. J. Pharmacol. Chem., 1968, 32, 295-310). At t=0 min., the animals are weighed and the compound being studied is administered by the IP route. A group of control animals is given the solvent used for the compound. At t=30 min., an alcoholic solution of PBQ (0.2%) is administered by the IP route in a volume of 0.25 ml/mouse. Immediately after administration of the PBQ, the animals are placed in cylinders of plexiglass (L=19.5 cm; I.D.=5 cm). From t=35 min. to t=45 min., the animals' reaction is observed and the experimenter notes the total number of abdominal cramps per animal.

CC1CC(=O)C=C(c2cccs2)N1C(=O)OC(C)(C)C (stereo not shown) [Example 1, Tert-butyl 2-methyl-4-oxo-6-(2-thienyl)-3,4-dihydro-1(2H)-pyridinecarboxylate]
T2 − T1 (s) ± sem, difference between recognition times of the 2 encounters [1]: -17.4 ± 2.5 s

CC1CC(=O)C=C(c2cccs2)N1 (stereo not shown) [Example 2, 2-Methyl-6-(2-thienyl)-2,3-dihydro-4(1H)-pyridone]
Inhibition (%) of the number of abdominal cramps measured in the control animals [2]: 48%

CC1CC(=O)C=C(c2ccccc2)N1C(=O)OC(C)(C)C (stereo not shown) [Example 3, Tert-butyl 2-methyl-4-oxo-6-phenyl-3,4-dihydro-1(2H)-pyridine-carboxylate]
Inhibition (%) of the number of abdominal cramps measured in the control animals [2]: 59% | T2 − T1 (s) ± sem, difference between recognition times of the 2 encounters [1]: -25.3 ± 7.1 s

CC1CC(=O)C=C(c2cccc(Cl)c2)N1 (stereo not shown) [Example 6, 6-(3-Chlorophenyl)-2-methyl-2,3-dihydro-4(1H)-pyridone]
Inhibition (%) of the number of abdominal cramps measured in the control animals [2]: 48% | T2 − T1 (s) ± sem, difference between recognition times of the 2 encounters [1]: -21.4 ± 5.1 s

CC1CC(=O)C=C(c2ccc(Cl)nc2)N1 (stereo not shown) [Example 8, 6-(6-Chloro-3-pyridyl)-2-methyl-2,3-dihydro-4(1H)-pyridone]
T2 − T1 (s) ± sem, difference between recognition times of the 2 encounters [1]: -17.2 ± 4.6 s
